According to patent US20160220801A1, “TREATING LICE WITH GASEOUS COMPOUNDS IN AN AIRTIGHT SPACE” (NOVOMIC LTD., priority 2007, published 2016):

Test system: lice
Conditions: active agent delivered as gas/vapour in an airtight cap around the head; comparison among carboxylic acids

Structure (SMILES)	effectiveness of carboxylic acids for use in treating lice and nits
CC(=O)O [acetic acid, Acetic acid]	most effective
O=CO [formic acid, Formic acid]	most effective
